These molecules were tested against T1, haematopoietic prostaglandin D synthase (H-PGDS) (Homo sapiens, UniProt O60760) (assay: H-PGDS RapidFire high throughput mass spectrometry assay (conversion of PGH2 to PGD2)). Settings: 10 nM H-PGDS, PGH2 formed in situ by COX-2 from arachidonic acid; four parameter curve fit; read-out: Potency Range (mean pIC50) (converted).
T1 construct: Full length human H-PGDS cDNA (Invitrogen Ultimate ORF IOH13026) was amplified by PCR; 6-His (N); TEV protease cleavage site (N); made in house; host or cells: E. coli BL21 (DE3*)
T1 sequence (O60760 whole entry): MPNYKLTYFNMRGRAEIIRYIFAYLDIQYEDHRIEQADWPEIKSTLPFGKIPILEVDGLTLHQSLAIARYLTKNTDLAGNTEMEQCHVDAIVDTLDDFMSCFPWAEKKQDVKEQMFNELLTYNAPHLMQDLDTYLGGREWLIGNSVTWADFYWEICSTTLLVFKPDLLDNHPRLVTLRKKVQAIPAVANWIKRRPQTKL
Type: biochemical
Protocol: The H-PGDS RapidFire™ mass spectrometric assay monitors conversion of prostaglandin H2 (PGH2) to prostaglandin D2 (PGD2) by haematopoietic prostaglandin D synthase (H-PGDS). In the assay format described here, the substrate (PGH2) is formed in situ by the action of cyclooxygenase-2 on arachidonic acid. This first step is set up to be fast, and generates a burst of PGH2 at ˜10 μM. The PGH2 is then further converted to PGD2 by the H-PGDS enzyme. […] Plates are then read on the RapidFire™ high throughput solid phase extraction system (Agilent) which incorporates a solid phase extraction step coupled to a triple quadrupole mass spectrometer (AB SCIEX). Relative levels of PGD2 and PGF2α, which acts as a surrogate for substrate, are measured and a percent conversion calculated. Inhibitors are characterised as compounds which lower the conversion of PGH2 to PGD2.
Full length human H-PGDS cDNA (Invitrogen Ultimate ORF IOH13026) was amplified by PCR with the addition of a 5′ 6-His tag and TEV protease cleavage site. The PCR product was digested with NdeI and XhoI and ligated into pET22b+ (Merck Novagen®). Expression was carried out in E. coli strain BL21 (DE3*) using auto-induction Overnight Express™ Instant TB medium (Merck Novagen®) supplemented with 1% glycerol. The culture was first grown at 37° C. and the temperature was reduced to 25° C. when OD600 reached 2.0. Cells were harvested by centrifugation after a further 18 hours. 10 g of E. coli cell pellet was suspended to a total volume of 80 mL in lysis buffer (20 mM Tris-Cl pH 7.5, 300 mM NaCl, 20 mM imidazole, 5 mM β-mercaptoethanol, 10% glycerol). 1 mg/mL protease inhibitors (Protease Inhibitor Cocktail Set III, Merck Calbiochem®) and 1 mg/mL lysozyme were added to the cell suspension. The suspension was then sonicated for 5 min (UltraSonic Processor VCX 750, Cole-Parmer Instrument Co.) with a micro probe (50% amplitude, 10 sec on/off) and then centrifuged at 100,000 g for 90 minutes (at 4° C.). The supernatant was loaded onto a Ni-NTA HiTrap column (5 mL, GE Healthcare, pre-equilibrated in lysis buffer). The column was washed with 10 column volumes of lysis buffer and eluted with lysis buffer containing 500 mM imidazole. The pooled protein peak fractions were concentrated using a 10 kDa centrifugal filter at 3500 g and 4° C. (Amicon Ultra-15 centrifugal filter unit with Ultracel-10 membrane from Millipore). Further purification of the concentrated protein was carried out using gel filtration chromatography on a HiLoad 26/600 Superdex 75 preparative grade column (GE Healthcare Life Sciences) using 50 mM Tris pH 7.5, 50 mM NaCl, 1 mM dithiothreitol, 1 mM MgCl2. Fractions containing the protein were pooled, concentrated as described above, and stored at −80° C.
The full length human COX-2 gene (accession number L15326) was amplified by PCR to generate an EcoRI—HindIII fragment containing an in-frame FLAG tag. This was subcloned into pFastBac 1 (Invitrogen). The COX-2 FLAG plasmid was recombined into the baculovirus genome according to the BAC-to-BAC protocol described by Invitrogen. Transfection into Spodoptera frugiperda (Sf9) insect cells was performed using Cellfectin (Invitrogen), according to the manufacturer's protocol. Super Sf9 cells were cultured in EX420 media (SAFC Biosciences) to a density of approximately 1.5×10^6 cells/mL within a wave bioreactor. Recombinant virus was added at a Multiplicity of Infection (MOI) of 5 and the culture was allowed to continue for 3 days. Cells were harvested using a continuous feed centrifuge run at 2500 g at a rate of approximately 2 L/min with cooling. The resultant cell slurry was re-centrifuged in pots (2500 g, 20 min, 4° C.) and the cell paste was stored at −80° C. 342 g of cell paste was re-suspended to a final volume of 1600 mL in a buffer of 20 mM Tris-Cl pH 7.4, 150 mM NaCl, 0.1 mM EDTA, 1.3% w/v n-octyl-[…] containing 20 Complete EDTA-free Protease Inhibitor Cocktail tablets (Roche Applied Science). […]

SMILES | IC50 [nM]
O=C(N[C@H]1CC[C@@](O)(C(F)F)CC1)c1cnc2nc(C3CC3)ccc2c1 [Example 52, 7-Cyclopropyl-N-((1r,4r)-4-(difluoromethyl)-4-hydroxycyclohexyl)-1,8-naphthyridine-3-carboxamide] | 100 to 1000
C[C@H]1CCN1c1nc2ncc(C(=O)N[C@H]3CC[C@H](C(C)(C)O)CC3)cc2cc1Cl [Example 58, 6-Chloro-N-(trans-4-(2-hydroxypropan-2-yl)cyclohexyl)-7-((S)-2-methylazetidin-1-yl)-1,8-naphthyridine-3-carboxamide] | < 10
C[C@]1(O)CC[C@H](NC(=O)c2cnc3nc(C4CC4)c(Cl)cc3c2)CC1 [Example 74, 6-Chloro-7-cyclopropyl-N-((1r,4r)-4-hydroxy-4-methylcyclohexyl)-1,8-naphthyridine-3-carboxamide ethyl acetate solvate] | < 10
CC(N[C@H]1CC[C@H](NC(=O)c2cnc3nc(C4CC4)ccc3c2)CC1)C(F)F (mixture of isomers) [Example 57, 7-Cyclopropyl-N-(trans-4-((1,1-difluoropropan-2-yl)amino)cyclohexyl)-1,8-naphthyridine-3-carboxamide] | 10 to 79.4
O=C(N[C@H]1CCNC1=O)c1cnc2nc(N3CCC3)ccc2c1 [Example 19, (S)-7-(Azetidin-1-yl)-N-(2-oxopyrrolidin-3-yl)-1,8-naphthyridine-3-carboxamide] | 10 to 79.4
CC1CCN1c1ccc2cc(C(=O)N[C@H]3CC[C@H](C(C)(C)O)CC3)cnc2n1 (mixture of isomers) [Example 7, N-(trans-4-(2-Hydroxypropan-2-yl)cyclohexyl)-7-(2-methylazetidin-1-yl)-1,8-naphthyridine-3-carboxamide] | 10 to 79.4
C[C@H]1CCN1c1nc2ncc(C(=O)N[C@H]3CC[C@](C)(O)CC3)cc2cc1Cl [Example 59, 6-Chloro-N-((1r,4s)-4-hydroxy-4-methylcyclohexyl)-7-((S)-2-methylazetidin-1-yl)-1,8-naphthyridine-3-carboxamide] | < 10
C[C@]1(O)CC[C@H](NC(=O)c2cnc3nc(C4CC4)ccc3c2)CC1 [Example 48, 7-Cyclopropyl-N-((1r,4r)-4-hydroxy-4-methylcyclohexyl)-1,8-naphthyridine-3-carboxamide] | 10 to 79.4
C[C@]1(O)C[C@@H](NC(=O)c2cnc3nc(N4CCC4)ccc3c2)C1 [Example 18, 7-(Azetidin-1-yl)-N-((1s,3s)-3-hydroxy-3-methylcyclobutyl)-1,8-naphthyridine-3-carboxamide] | 100 to 1000
COc1nc2ncc(C(=O)N[C@H]3CC[C@H](C(C)(C)O)CC3)cc2cc1Cl [Example 62, 6-Chloro-N-(trans-4-(2-hydroxypropan-2-yl)cyclohexyl)-7-methoxy-1,8-naphthyridine-3-carboxamide] | < 10
C[C@H]1CCN1c1nc2ncc(C(=O)N[C@H]3C[C@](C)(O)C3)cc2cc1Cl [Example 64, 6-Chloro-N-((1r,3S)-3-hydroxy-3-methylcyclobutyl)-7-((S)-2-methylazetidin-1-yl)-1,8-naphthyridine-3-carboxamide] | < 10
C[C@]1(O)C[C@H](NC(=O)c2cnc3nc(C4CC4)ccc3c2)C1 [Example 46, 7-Cyclopropyl-N-((1r,3s)-3-hydroxy-3-methylcyclobutyl)-1,8-naphthyridine-3-carboxamide] | 100 to 1000
C[C@H]1CCN1c1cc2ncc(C(=O)NC3CCN(C(=O)C(C)(C)O)CC3)cc2cn1 [Example 24, (S)—N-(1-(2-Hydroxy-2-methylpropanoyl)piperidin-4-yl)-7-(2-methylazetidin-1-yl)-1,6-naphthyridine-3-carboxamide] | 10 to 79.4
C[C@H]1CCN1c1nc2ncc(C(=O)N[C@H]3CCNC3=O)cc2cc1Cl [Example 60, 6-Chloro-7-((S)-2-methylazetidin-1-yl)-N—((S)-2-oxopyrrolidin-3-yl)-1,8-naphthyridine-3-carboxamide] | < 10
CC(C)(O)[C@H]1C[C@H](NC(=O)c2cnc3cc(C4CC4)ncc3c2)C1 [Example 32, 7-Cyclopropyl-N-(trans-3-(2-hydroxypropan-2-yl)cyclobutyl)-1,6-naphthyridine-3-carboxamide] | 10 to 79.4
O=C(N[C@H]1C[C@](O)(C(F)(F)F)C1)c1cnc2cc(C3CC3)ncc2c1 [Example 40, 7-Cyclopropyl-N-((1s,3s)-3-hydroxy-3-(trifluoromethyl)cyclobutyl)-1,6-naphthyridine-3-carboxamide] | 100 to 1000
COc1ncc2cc(C(=O)N[C@H]3CC[C@H](C(C)(C)O)CC3)cnc2n1 [Example 80, N-((trans)-4-(2-Hydroxypropan-2-yl)cyclohexyl)-2-methoxypyrido[2,3-d]pyrimidine-6-carboxamide] | 100 to 1000
CC(C)(O)[C@H]1C[C@H](NC(=O)c2cnc3nc(C4CC4)ccc3c2)C1 [Example 47, 7-Cyclopropyl-N-(trans-3-(2-hydroxypropan-2-yl)cyclobutyl)-1,8-naphthyridine-3-carboxamide] | 10 to 79.4
C[C@]1(O)CC[C@H](NC(=O)c2cnc3cc(C4CC4)ncc3c2)CC1 [Example 30, 7-Cyclopropyl-N-((1r,4r)-4-hydroxy-4-methylcyclohexyl)-1,6-naphthyridine-3-carboxamide] | 100 to 1000
CC(C)(O)[C@H]1CC[C@H](NC(=O)c2cnc3nc(C4CCC4)ccc3c2)CC1 [Example 72, 7-Cyclobutyl-N-(trans-4-(2-hydroxypropan-2-yl)cyclohexyl)-1,8-naphthyridine-3-carboxamide] | 10 to 79.4
O=C(N[C@H]1CC[C@](O)(C(F)F)CC1)c1cnc2cc(C3CC3)ncc2c1 [Example 36, 7-Cyclopropyl-N-((1s,4s)-4-(difluoromethyl)-4-hydroxycyclohexyl)-1,6-naphthyridine-3-carboxamide] | 100 to 1000
O=C(N[C@H]1CC[C@H](N2CC(F)C2)CC1)c1cnc2cc(C3CC3)ncc2c1 [Example 35, 7-Cyclopropyl-N-(trans-4-(3-fluoroazetidin-1-yl)cyclohexyl)-1,6-naphthyridine-3-carboxamide] | 10 to 79.4
O=C(N[C@H]1CC[C@@](O)(C(F)F)CC1)c1cnc2cc(C3CC3)ncc2c1 [Example 33, 7-Cyclopropyl-N-((1r,4r)-4-(difluoromethyl)-4-hydroxycyclohexyl)-1,6-naphthyridine-3-carboxamide] | 100 to 1000
CC(C)(O)[C@H]1CC[C@H](NC(=O)c2cnc3cc(N4CCC4)ncc3c2)CC1 [Example 4, 7-(Azetidin-1-yl)-N-(trans-4-(2-hydroxypropan-2-yl)cyclohexyl)-1,6-naphthyridine-3-carboxamide] | < 10
C[C@H]1CCN1c1cc2ncc(C(=O)N[C@H]3CC[C@H](C(C)(C)O)CC3)cc2cn1 [Example 13, N-(trans-4-(2-Hydroxypropan-2-yl)cyclohexyl)-7-((S)-2-methylazetidin-1-yl)-1,6-naphthyridine-3-carboxamide] | < 10
C[C@H]1CCN1c1cc2ncc(C(=O)N[C@H]3C[C@H](C(C)(C)O)C3)cc2cn1 [Example 26, N-(trans-3-(2-Hydroxypropan-2-yl)cyclobutyl)-7-((S)-2-methylazetidin-1-yl)-1,6-naphthyridine-3-carboxamide] | 10 to 79.4

From US11149035B2, “Chemical compounds as H—PGDS inhibitors” (GlaxoSmithKline Intellectual Property Development Limited, priority 2017, dated 2021)
